Test results published in patent publication US8846044B2, “Stabilizing alkylglycoside compositions and methods thereof” (Aegis Therapeutics, LLC, priority 2006, dated 2014).
Like-named read-outs stand apart in the source and are kept apart here.

Columns and labels:
[1] = in water; cited from earlier work
HIV BaL [2] = format: cell-based, HIV-1; settings: dried
Method: Inhibition of HIV infection is studied by utilizing an infection assay in which GHOST CD4 CCR5 cells are infected with HIV BaL, an R5 tropic isolate (Ruff, M R et al., 2001). Infection is detected via viral induction of the hGFP gene (green fluorescent protein) 48 hrs post-infection. Trays are measured in a plate reader to determine fluorescence intensity. All infections are performed by adding fresh culture medium containing approximately 1,000 infectious units of HIV-1 per well (96-well plates). […]
The peptide was dissolved in the indicated concentration of TFE in water and then shaken or agitated for 24 hrs at 37° C. The peptide was subsequently dried down, and the TFE/water mixture removed under vacuum. […] Although TFE is removed, residual traces of TFE within acceptable range for human consumption may remain.
Inhibition of HIV infection was studied by utilizing an infection assay using GHOST CD4 as previously described by Ruff, M R et al., 2001. CCR5 cells are infected with HIV BaL, an R5 tropic isolate. Infection is detected via viral induction of the hGFP gene (green fluorescent protein) about 48 hours post-infection. Trays were measured in a plate reader to determine fluorescence intensity. All infections were performed by adding fresh culture medium containing approximately 1,000 infectious units of HIV-1 per well (96-well plates).
Again, the peptide was then evaporated or dried down, and resuspended in an aqueous solution, e.g., water for about three days, and tested for anti-HIV activity, as above.

[3] = DAPTA fibril formation in solution (EM, FTIR, CD, dye binding); format: physicochemical; settings: for Time to form aggregates: distilled water, 10 mg/ml
Method: Preparation of DAPTA solutions. DAPTA was dissolved in water, and solutions maintained at various temperatures and times. To prepare fibrils, DAPTA was prepared at 10 mgs/mL in water and stored overnight at 4° C.
Determining fibril formation.
Congo red was dissolved in PBS (5 mM potassium phosphate, 150 mM NaCl, pH 7.4) to a concentration of 7 ug/mL. The solution was chilled to 4° C., and DAPTA added as a 10 mg/mL stock solution in water, to yield final peptide concentration in the dye solution of 0.48 mg/mL. Peptide solution immediately after dissolution of powder was compared with an aged stock solution containing aggregated peptides. Spectra were collected between 400-700 nm, at 4° C.
Fibril formation of peptide T or analog thereof can also be determined using Circular Dichroism (CD) spectroscopy. Ten mg/mL solutions in water of either freshly prepared peptide or containing fibrillar aggregates was added to distilled water at 4° C. to a concentration of 50 ug/mL. CD spectra were collected on a Jasco model J-810 spectrometer using a 0.1 cm path length quartz cuvette, between 190-250 nm, with a […] interval, and a response time of 2 sec.
Still another method of determining fibril formation of peptide T or analog thereof is performed using Fourier Transform Infrared (FTIR) Spectroscopy. DAPTA was dissolved in deuterated water, to a concentration of 10 mg/ml and incubated under temp and time conditions that promote fibril formation. 25 ul samples were then placed in a pre-cooled transmission cell with NaCl windows separated by a 6 um spacer. FTIR spectra were collected on a BioRad FTS-175C Fourier transform spectrometer in transmission mode using a DTGS detector. 2506 interferograms were recorded with a 2 cm-1 resolution. Water vapor was subtracted and the spectra baselines corrected.

HIV = assay: Inhibition of HIV infectivity in vitro by stored DAPTA solutions; format: cell-based
Method: Aggregation is discovered to be associated with a loss of biological activity in vitro. Typically, the recommended protocol is to have DAPTA stored at 0.1 mM solutions in water at 4° C.
Aggregation is reduced in the presence of trifluoroethanol (TFE). TFE was selected because of its property of reducing certain types of protein-protein interactions. DAPTA was dissolved in either distilled water, or solutions containing between 60% and 100% TFE. Aggregation was evaluated by assaying inhibition of HIV infectivity, in vitro. […] Also, TFE is capable of disassociating preformed aggregates of DAPTA. Aggregates of DAPTA, formed in distilled water were disrupted by addition of TFE to 80%, as measured by EM.

HIV BaL [4] = format: cell-based, HIV-1; settings: dried, in water about three days
envelop (gp120) binding = settings: 1987 report; cited from earlier work
people with AIDS = settings: cited from earlier work; for Patients with improved neuro-psychological performance: early AIDS dementia (Kosten et al., 1997)
nasal mucosa = settings: cited from earlier work
isolated nasal cilia = settings: cited from earlier work
[5] = Light scatter of beta interferons, Pramlintide and calcitonin with and without dodecyl maltoside; settings: 37° C., 150 RPM, 38 day test period

Molecule: CCCCCCCCCCCCCO[C@@H]1O[C@H](CO)[C@@H](OC2OC(CO)C(O)C(O)C2O)[C@H](O)[C@H]1O (stereo in doubt) [Tridecyl maltoside]
- CMC [1]: 0.03 mM

Molecule: CCCCCCCCO[C@@H]1O[C@H](CO)[C@@H](O[C@H]2O[C@H](CO)[C@@H](O)[C@H](O)[C@H]2O)[C@H](O)[C@H]1O [Octyl maltoside]
- CMC [1]: 19.5 mM

Molecule: D-ala^1-Peptide T-amide [DAPTA]
- Percent Reduction in HIV Infection (HIV BaL [2]; 0.1 nM DAPTA, TFE Concentration 0 %, shaken 24 hrs at 37° C., stored in water about 3 days): 0 ± 2%
- Percent Reduction in HIV Infection (HIV BaL [2]; 0.1 nM DAPTA, TFE Concentration 20 %, shaken 24 hrs at 37° C., stored in water about 3 days): 0 ± 3%
- Percent Reduction in HIV Infection (HIV BaL [2]; 0.1 nM DAPTA, TFE Concentration 40 %, shaken 24 hrs at 37° C., stored in water about 3 days): 0 ± 2%
- Percent Reduction in HIV Infection (HIV BaL [2]; 0.1 nM DAPTA, TFE Concentration 60 %, shaken 24 hrs at 37° C., stored in water about 3 days): 20 ± 4%
- Percent Reduction in HIV Infection (HIV BaL [2]; 0.1 nM DAPTA, TFE Concentration 80 %, shaken 24 hrs at 37° C., stored in water about 3 days): 100 ± 5%
- Percent Reduction in HIV Infection (HIV BaL [2]; 0.1 nM DAPTA, TFE Concentration 100 %, shaken 24 hrs at 37° C., stored in water about 3 days): 98 ± 3%
- Percent Reduction in HIV Infection (HIV BaL [2]; 80% TFE, shaken about 24 hours at 37 ° C., in water about three days): 100 ± 5%
- Percent Reduction in HIV Infection (HIV BaL [2]; about 80% TFE/water, shaken 24 hrs at 37 degrees, in water about three days): 100 ± 3%
- Dissociation of aggregates on warming ([3]; 5 mg/mL in 0.45% NaCl, warmed to 37° C. for about 17-24 hours with shaking): reversibly dissociate
- Time to observable fibril formation ([3]; 0.9% saline (10 mg/mL), room or ambient temperature): ≤ 48 h
- Time to observable fibrillization ([3]; 0.9% saline (10 mg/mL), stored at 4° C.): less than 1 hour
- Effect of TFE on preformed aggregates, by EM ([3]; aggregates formed in distilled water, TFE added to 80%): disrupted
- Time to form aggregates ([3]; 4 deg. C.): ≤ 2 h
- Time to form aggregates ([3]; room temperature): 24 to 170 h
- Time to substantial loss of activity (HIV uptake inhibition in vitro) (HIV; 0.1 mM solution in water at 4° C.): about 6 weeks
- Activity after storage (inhibition of HIV infectivity in vitro) (HIV; stored in TFE between 60% and 100% versus water): retained more activity
- Percent Reduction in HIV Infection (HIV BaL [4]; 80% TFE, shaken about 24 hours at Room Temp.): 70 ± 6%
- Percent Reduction in HIV Infection (HIV BaL [4]; about 80% TFE/water, shaken 12 hrs at 37 degrees): 70 ± 4%
- Percent Reduction in HIV Infection (HIV BaL [4]; about 80% TFE/water, shaken 48 hrs at 37 degrees): 100 ± 3%
- Concentration that blocks envelop (gp120) binding and inhibits viral infectivity (envelop (gp120) binding): 10 pM
- Neuropsychological performance versus placebo (people with AIDS; 2 mg three times daily intranasally, at least four months (Heseltine et al., 1998)): no difference in neuropsychological performance
- Patients with improved neuro-psychological performance (people with AIDS; high dose (15 mg daily)): 4/5
- Persistently infected monocyte reservoir (people with AIDS; human, in vivo): greatly reduced or flushed to undetectable levels in all patients
- Patients with improved neuro-psychological performance (people with AIDS; low dose (1.5 mg daily)): 1/4
- Lower limb pain in HIV-related peripheral neuropathy (people with AIDS; nine individuals, subcutaneously 10 mg daily (MacFadden and Doob 1991)): complete or subjectively significant resolution of lower limb pain
- Adverse drug effects (people with AIDS; nine individuals, subcutaneously (MacFadden and Doob 1991)): No adverse drug effects were noted
- Cognitive and neuromotor function versus controls (people with AIDS; phase I, 0.1 to 3.2 mg/kg/day intravenously, moderate impairment (Bridge et al. 1989)): Cognitive and neuromotor function improved
- Painful peripheral neuropathy versus placebo (people with AIDS; phase II double-blind, 6 mg/day for 12 weeks (Simpson et al. 1996)): no statistically significant differences

Molecule: CCCCCCCCCCCCCCO[C@@H]1O[C@H](CO)[C@@H](O[C@@H]2O[C@@H](CO)[C@H](O)[C@@H](O)[C@@H]2O)[C@H](O)[C@H]1O (stereo in doubt) [Tetradecyl maltoside]
- CMC [1]: 0.01 mM

Molecule: Sucrose dodecanoate
- CMC [1]: 0.3 mM

Molecule: benzalkonium chloride [BAC]
- Saccharine transport time and proinflammatory indicators in vivo (nasal mucosa): did not alter saccharine transport time
- Damage to the nasal mucosa (nasal mucosa; in vivo): no significant damage to the nasal mucosa
- Nasal irritation (nasal mucosa; in vivo): no discernible negative effects
- Nasal mucosal function (nasal mucosa; in vivo): no detectable effect on the nasal mucosal function
- Effect on isolated nasal cilia in vitro (isolated nasal cilia): ciliotoxic

Molecule: CCCCCCCCCCCCO[C@@H]1O[C@H](CO)[C@@H](O[C@H]2O[C@H](CO)[C@@H](O)[C@H](O)[C@H]2O)[C@H](O)[C@H]1O [Dodecyl β-D-maltoside]
- CMC [1]: 0.17 mM

Molecule: CCCCCCCCCCO[C@@H]1O[C@H](CO)[C@@H](O[C@H]2O[C@H](CO)[C@@H](O)[C@H](O)[C@H]2O)[C@H](O)[C@H]1O [Decyl maltoside]
- CMC [1]: 1.8 mM

B1: Betaseron®: beta interferon 1b, Lot number YA0549A (protein, UniProt P01574 22-187, looked up, variant C17S)
Interferon beta: MSYNLLGFLQRSSNFQSQKLLWQLNGRLEYCLKDRMNFDIPEEIKQLQQFQKEDAALTIYEMLQNIFAIFRQDSSSTGWNETIVENLLANVYHQINHLKTVLEEKLEKEDFTRGKLMSSLHLKRYYGRILHYLKAKEYSHCAWTIVRVEILRNFYFINRLTGYLRN
modifications: interferon beta-1b, lacks N-terminal Met
- Aggregation as increase in light scatter [5]: much larger increase in light scatter
- Stabilization by 0.2% Dodecyl maltoside, in words ([5]; light scatter at 500 nm): greatest stabilization effect
